Laboratory results taken from US20140323575A1, “TYROSINE ISOMERS AS THERAPEUTIC AGENTS” (CONSEJO NACIONAL DE INVESTIGACIONES CIENTIFICAS Y TECNICAS …, priority 2011, published 2014).

Tests used:
[1] = system: inhibitory activity present in serum from LB tumor-bearing mice; assay: Titer of growth-inhibitory activity in serum from drug-treated LB tumor-bearing mice; type: in vivo; conditions: for effect on serum inhibitory activity of LB tumor-bearing mice: treatment of LB tumor-bearing mice
[2] = system: LB tumor cells; assay: Rescue of in vitro LB tumor inhibition mediated by m- or o-tyrosine by co-culturing with amino acids; type: cell-based, mice; conditions: co-culture with m- or o-tyrosine
Protocol: (§1) Each point (percentage of cpm incorporated by LB cells as compared with the control) represents the mean±SE of 3 experiments. Significance versus control, meta-tyrosine and peak 2: P<0.001 at >2.75 μg/mL; peak 2: P<0.05 at 2.75 μg/mL. ortho-tyrosine P<0.001 at 500 to 125 μg/mL; P<0.002 at 30 μg/mL. Peak 3: P<0.002 and P<0.01, at 31 and 15.5 μg/mL, respectively. Rescue of in vitro LB tumor inhibition mediated by meta-tyrosine (150 μg/mL)(B) or ortho-tyrosine (150 μg/mL) (C) by co-culturing with 150 μg/mL of individual protein amino acids. Each value represents the mean±SE of 8 to 18 determinations for (B) and 4 to 9 determinations for (C). a, P<0.01; c, P<0.001 versus meta- or ortho-tyrosine. Data with saline was similar to data obtained with each amino acid alone.

[3] = system: MC-C tumor; assay: In vivo growth of s.c. MC-C fibrosarcoma implants; design: species or system mice; conditions: secondary MC-C implant in primary tumor-bearing mice, 0.2 ml of 500 μg/ml daily for 19 days at the site
Protocol: Twelve mice received a s.c. implant of 5×10^6 MC-C tumor cells in the right flank and 25 days later they received a secondary implant of 2×10^6 MC-C tumor cells in the left flank. […] The remaining 6 mice received 0.2 ml of phenylalanine (500 μg/ml) at the site of the secondary implant, daily, for 19 days, starting 1 hour later than the secondary implant. These secondary implants grew as in 6 controls only receiving the implant in the left flank (tumor volumes of secondary tumor+phenylalanine and of controls, 20 days after the implant in the left flank were =680±152 mm^3 and 524±88 mm^3, respectively). […] Significance: Secondary tumor vs. control: p<0.01; vs. secondary tumor+phenylalanine: p<0.02. Control+m-tyrosine vs. control and vs. secondary tumor+phenylalanine: p<0.02.

[4] = system: STAT3; assay: Western blot of p-STAT3 in LB tumor cells; type: cell-based, mice; conditions: added together with m-tyrosine, 250 μg/mL each, 8 hours
Protocol: (§2) FIG. 8 illustrates the effect of meta-tyrosine on the expression of phosphorylated (p)-Erk 1/2 and p-STAT3 in LB tumor cells using Western blot: 3×10^5 LB tumor cells in 0.1 mL of medium were cultured in the presence of 0.1 mL of meta-tyrosine (m-Tyr; 250 μg/mL), phenylalanine (Phe, 250 μg/mL), meta-tyrosine (250 μg/mL)+phenylalanine (250 μg/mL), or saline for 3 minutes (to measure p-ERK 1/2) or for 8 hours (to measure p-STAT3). Positive control was obtained by treating LB cells with pervanadate. Controls with acting, total ERK 1/2, and total STAT3 were also added. FIG. 8A illustrates a representative experiment showing p-ERK 1/2 expression. FIG. 8B is a histogram showing the mean of 5 experiments; a, P<0.01 versus saline and versus meta-tyrosine+phenylalanine; P<0.02 versus phenylalanine. FIG. 8C illustrates a representative experiment showing p-STAT3 expression. […]
(§3) On this basis, we analyzed, first, the effect of m-tyrosine on ERK1 and ERK2 as 2 examples of protein kinases that are activated by the mitogen activated protein/extracellular signal-regulated kinase (MAP/ERK) signal transduction pathway that normally couples intracellular responses associated with cell proliferation, to the binding of growth factors to cell surface receptors (Kohno M, and Pouyssegur J. 2006. Targeting the ERK signaling pathway in cancer therapy. Ann Med; 38:200-211). […]

[5] = system: ERK1 and ERK2; assay: Western blot of p-ERK 1/2 in LB tumor cells; type: cell-based, mice; conditions: added together with m-tyrosine, 250 μg/mL each, 3 minutes
Protocol: as §2, §3

[6] = system: LB tumor; assay: In vivo growth of s.c. LB tumor implants (primary, secondary under CR, established, ascitic); design: species or system mice
Protocol: Twenty mice received an s.c. implant of 1×10^6 LB cells in the right flank, and, 7 days later, an s.c. secondary implant of 1×10^5 LB tumor cells in the left flank. […] The remaining 10 mice received 0.2 mL of phenylalanine (500 μg/mL) at the site of the secondary implant, daily, for 8 days, starting 1 hour after the secondary inoculum [CR+Phe (-□-)]. Controls were 10 mice receiving 1×10^5 LB tumor cells in the left flank only [control (-Δ-)]. A fourth group received the tumor inoculum in the left flank but also meta-tyrosine at the site of tumor implant (0.2 mL of 500 μg/mL, n=10) or by the intraperitoneal route (0.5 mL of 1,000 μg/mL, n=6), daily, for 8 days, starting 1 hour after tumor inoculum [control+m-Tyr: (-▴-)]. A fifth group received the tumor inoculum in the left flank and also meta-tyrosine (0.2 mL of 500 μg/mL, n=5) at the site of tumor growth, daily for 5 days, starting (see arrow) when LB was an established tumor measuring 60 to 70 mm^3 [est. LB+m-Tyr: (-X-)]. Abscissa, days after tumor implant in the left flank. Ordinate, volume of the tumors implanted in the left flank. CR and control+m-Tyr versus control: P<0.001 at day 9 and P<0.002 at days 5 and 7; CR and control+m-Tyr versus CR+Phe: P<0.001 at days 5, 7 and […]; est. LB+m-Tyr versus control and CR+Phe: P<0.002 at day 9. Control+tyrosine or saline, control; CR+tyrosine or saline, CR. FIG. 6B is a microscopic view showing many tumor cells expressing Ki-67 protein in both CR+phenylalanine (B1) and control (B2) groups and few tumor cells expressing Ki-67 in both CR (B3) and control+meta-tyrosine (B4) groups (H×400). FIG. 6C illustrates a representative experiment showing the frequency distribution histogram of viable LB cells from a control tumor (C1), from a secondary tumor inhibited by CR (C2), and from a tumor inhibited by periodic intraumoral injection of meta-tyrosine (C3). Samples of tumor cells were collected 9 days after the s.c. inoculation of 1×10^5 LB tumor cells.

[7] = system: CEI tumor; assay: In vivo growth of s.c. CEI epidermoid carcinoma implants; design: species or system mice; conditions: secondary CEI implant in primary tumor-bearing mice, 0.2 ml of 500 μg/ml daily for 19 days at the site
Protocol: Twelve mice received a s.c. implant of 1×10^6 CEI tumor cells in the right flank and 28 days later they received a secondary implant of 3×10^5 CEI tumor cells in the left flank. […] The remaining 6 mice received 0.2 ml of phenylalanine (500 μg/ml) at the site of the secondary implant, daily, for 19 days, starting 1 hour later than the secondary implant. These secondary implants grew as in 6 controls only receiving the implant in the left flank (tumor volumes of secondary tumor+phenylalanine and of controls, 20 days after the implant in the left flank were 358±38 mm^3 and 373±93 mm^3, respectively). […] Significance: Secondary tumor and control+m-tyrosine vs. control: p<0.01; vs. secondary tumor+phenylalanine: p<0.001.

[8] = system: LB tumor cells; assay: In vitro LB tumor cell proliferation ([3H]-thymidine uptake); type: cell-based, mice; conditions: even with high concentrations
Protocol: as §1
Fractionation of serum from mice bearing a subcutaneous LB tumor (size≧2,000 mm^3) was carried out through several steps of purification (FIG. 1). Serum from normal mice was similarly fractioned as control. At all stages of the purification, the presence of the inhibitory factor was monitored by the [^3H]-thymidine uptake assay as a measure of LB tumor cell proliferation. First, serum was decomplemented and subjected to dialysis. The inhibitory factor was recovered only in the dialyzable fraction (MW<12,500 Da) and was then concentrated by lyophilization and applied successively to Sephadex G-25 and G-15 chromatographic columns, where activity was recovered at fractions corresponding to a molecular weight below 1,000 Da. These fractions were lyophilized and further purified with an HPLC column C18 in a gradient of acetonitrile in TFA (first HPLC). In 12 similar and independent experiments, growth inhibitory activity was systematically recovered in only 1 fraction eluted at near 20% acetonitrile (FIG. 2).
To test directly whether a “cocktail” of amino acids similar to that detected close to the “primary site” was more counteracting of the antitumor effects produced by m- and o-tyrosine than a “secondary site cocktail,” different concentrations of a mixture of m-tyrosine and o-tyrosine (ratio 1:1) were assayed on LB tumor cell proliferation, alone or together with a primary or a secondary site cocktail of amino acids.

[9] = serum of mice bearing s.c. LB tumor >2,000 mm^3, agent i.p. 48 and 24 hours before testing, titer = reciprocal of serum dilution producing 50% inhibition of [3H]thymidine uptake by LB cells

Compound	effect on serum inhibitory activity of LB tumor-bearing mice [1]	GIU50/mL (X ± SE) [1, 9]	counteracting of the inhibitory effect produced by m- and o-tyrosine [2]	further results
CN(C)CCCN1c2ccccc2Sc2ccc(Cl)cc21 [Chlorpromazine, chlorpromazine]	significant reduction	–	–	GIU50/mL (X ± SE) ([1]; ip): 84 ± 19 GIU50/mL
C[C@@H]1C[C@H]2[C@@H]3CCC4=CC(=O)C=C[C@]4(C)[C@@]3(F)[C@@H](O)C[C@]2(C)[C@@]1(O)C(=O)CO [Dexamethasone, dexamethasone]	–	–	–	GIU50/mL (X ± SE) ([1]; ip): 70 ± 18 GIU50/mL
Nc1ccn([C@@H]2O[C@H](CO)[C@@H](O)C2(F)F)c(=O)n1 [Gemcitabine, gemcitabine]	significant reduction	40 ± 6 GIU50/mL	–	–
COc1ccc2c(c1)c(CC(=O)O)c(C)n2C(=O)c1ccc(Cl)cc1 [INDO, indomethacin]	significant reduction	–	–	GIU50/mL (X ± SE) ([1]; ip): 142 ± 16 GIU50/mL
COC(=O)[C@@H](N)CCCNC(=N)N[N+](=O)[O-] [L-NAME]	did not reduce	266 ± 34 GIU50/mL	–	–
CCCCc1nc(Cl)c(CO)n1Cc1ccc(-c2ccccc2-c2nn[nH]n2)cc1 [Losartant, losartan]	did not reduce	–	–	GIU50/mL (X ± SE) ([1]; ip): 300 ± 30 GIU50/mL
CC(Cc1ccc(O)c(O)c1)C(C)Cc1ccc(O)c(O)c1 (centres unmarked) [NDGA, nordihydroguaiaretic acid]	significant reduction	116 ± 14 GIU50/mL	–	–
O=C1CCN(c2ccccc2)N1 [Phenidone, phenidone]	significant reduction	103 ± 19 GIU50/mL	–	–
CC(CN1c2ccccc2Sc2ccccc21)N(C)C (centres unmarked) [Promethazine, promethazine]	significant reduction	80 ± 9 GIU50/mL	–	–
N[C@@H](CC(=O)O)C(=O)O [aspartic acid]	–	–	counteracted	–
N[C@@H](CCC(=O)O)C(=O)O [glutamic acid]	–	–	counteracted	–
NC(=O)CC[C@H](N)C(=O)O [glutamine]	–	–	counteracted	–
N[C@@H](Cc1c[nH]cn1)C(=O)O [histidine]	–	–	only counteracted the inhibitory effect produced by m-tyrosine	–
N[C@@H](Cc1ccccc1)C(=O)O [phenylalanine, reference compound]	–	–	counteracted	tumor volume of secondary tumor 20 days after the implant in the left flank [3]: 680±152 mm^3; effect on the m-tyrosine-induced reduction of STAT3 activation [4]: reversed that effect; effect on the m-tyrosine-induced reduction of ERK1/ERK2 activation [5]: reversed that effect; expression of Ki-67 protein in tumor cells ([6]; control+m-tyrosine tumors or secondary implants treated with phenylalanine (FIG. 6B)): high expression; growth of secondary LB tumor implant otherwise inhibited by CR ([6]; periodically inoculated at the site of the secondary implant): grew similarly to controls; tumor volume of secondary tumor 20 days after the implant in the left flank [7]: 358±38 mm^3
N[C@@H](Cc1ccc(O)cc1)C(=O)O [tyrosine, 4-hydroxyphenylalanine]	–	–	did not reduce	effect on LB cells in vitro [8]: innocuous
Catalase	significant reduction	49 ± 5 GIU50/mL	–	–
